Patent US5925769A, “Acetylenic 1,5-diarylpyrazoles as antiinflammatory agents” (Ortho Pharmaceutical, Corp., priority 1998, dated 1999)
Read-outs that look alike come from different tables or passages of the source.

Experiments:
[1] = target: T1, Sheep seminal vesicle (SSV) cyclooxygenase (Ovis aries, UniProt P05979); test: Procedure I: inhibition of sheep seminal vesicle (SSV) cyclooxygenase; type: biochemical; details: for inhibition at 10 µM: 20 min, read-out: Proc. I % inhibition; for IC50: read-out: Proc. I IC50
T1 construct: Sheep seminal vesicle (SSV) cyclooxygenase (95% pure); purchased Biomol (Plymouth Meeting, PA); host or cells: sheep seminal vesicle
T1 sequence (P05979 25-600): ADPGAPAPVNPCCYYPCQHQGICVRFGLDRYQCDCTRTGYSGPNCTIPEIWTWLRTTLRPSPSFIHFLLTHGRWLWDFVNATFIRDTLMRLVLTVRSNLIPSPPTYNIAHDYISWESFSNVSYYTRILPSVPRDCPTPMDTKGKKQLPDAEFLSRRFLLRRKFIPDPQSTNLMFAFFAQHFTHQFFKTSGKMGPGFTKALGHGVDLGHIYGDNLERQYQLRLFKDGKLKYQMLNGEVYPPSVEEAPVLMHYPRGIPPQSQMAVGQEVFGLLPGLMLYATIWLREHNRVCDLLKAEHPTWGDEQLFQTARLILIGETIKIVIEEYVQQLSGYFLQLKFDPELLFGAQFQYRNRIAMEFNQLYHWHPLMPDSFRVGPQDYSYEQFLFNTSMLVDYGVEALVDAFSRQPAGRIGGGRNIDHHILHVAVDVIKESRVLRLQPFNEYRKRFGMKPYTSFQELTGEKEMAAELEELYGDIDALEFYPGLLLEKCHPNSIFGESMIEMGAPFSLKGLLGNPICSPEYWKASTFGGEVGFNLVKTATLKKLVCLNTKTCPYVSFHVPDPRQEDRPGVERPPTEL
Protocol: Procedure I was used to determine the ability of the compounds to inhibit cyclooxygenase. […] The enzyme was divided into 200 μL aliquots, snap frozen with liquid N2, and stored at -70° C. until immediately prior to use. […] The tubes were mixed on a vortex shaker, preincubated for 5 min at 37° C. prior to the initiation of the reaction. The reaction was started by the addition of [^14 C]-arachidonic acid (1-^14 C-AA, Amersham, Arlington Heights, Ill.) in 10 μL of methanol. Tubes were again vortexed and incubated in a water bath for 20 minutes after which the tubes were removed and the reaction stopped by acidification with the addition of 1 mL 2M formic acid. Lipophilic products were extracted with 3 mL chloroform and concentrated to dryness under N2. Each pellet was reconstituted with 40 μL of chloroform and spotted on a Whatman Silicon thin-layer chromatography plate and developed in a chromatography tank containing A-9 solvent (11:5:2:1 V:V:VV, ethyl acetate:trimethyl-pentane:acetic acid:double distilled-H2 O). Radioactive cyclooxygenase products (prostaglandin D2, prostaglandin E2, etc.) were measured using a Bioscan System 200 Imaging Scanner. Inhibition of enzyme activity was calculated by comparing the areas under the curve produced in the presence or absence of test compound.

CO [2] = target: T2, CO (Rattus norvegicus, UniProt Q63921); test: Procedure II: CO activity in broken RBL-1 cells (homogenate supernatant); type: biochemical; details: 20 min; @ 10 .quadrature.M; RBL-1 broken cell supernatant; read-out: Proc. II CO % inhibition
T2 construct: the supernatant was saved as the source of enzymes; endogenous in cells; host or cells: RBL-1 (rat basophilic leukemia) cells
T2 sequence (Q63921 27-602): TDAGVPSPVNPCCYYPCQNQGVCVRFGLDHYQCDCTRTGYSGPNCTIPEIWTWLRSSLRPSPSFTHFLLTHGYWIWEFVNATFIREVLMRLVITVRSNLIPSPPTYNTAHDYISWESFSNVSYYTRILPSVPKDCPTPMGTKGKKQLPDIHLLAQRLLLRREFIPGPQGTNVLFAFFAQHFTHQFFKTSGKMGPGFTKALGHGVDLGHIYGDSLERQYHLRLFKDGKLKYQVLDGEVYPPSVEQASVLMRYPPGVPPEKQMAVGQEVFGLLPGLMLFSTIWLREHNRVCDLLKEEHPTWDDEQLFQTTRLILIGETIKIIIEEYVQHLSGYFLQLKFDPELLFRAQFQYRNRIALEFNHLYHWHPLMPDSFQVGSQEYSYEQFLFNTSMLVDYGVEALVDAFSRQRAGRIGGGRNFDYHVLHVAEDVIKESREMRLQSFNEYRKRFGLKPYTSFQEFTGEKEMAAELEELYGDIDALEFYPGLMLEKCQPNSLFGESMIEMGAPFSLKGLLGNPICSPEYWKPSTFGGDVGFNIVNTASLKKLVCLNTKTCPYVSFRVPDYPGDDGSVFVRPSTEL
Protocol: (§1) Procedure II was used to assess LO and CO activity. Rat basophilic leukemia cells (RBL-1; 5×10^7 viable cells/mL) were disrupted by homogenization on ice (four 20 sec bursts) with a Brinkman polytron. […] The homogenate was then centrifuged at 9,220×g for 48 minutes at 4° C. The pellet was discarded and the supernatant was saved as the source of enzymes. The supernatant was pre-incubated for five minutes at 37° C. in the presence of 2 mM of CaCl2 and compound or vehicle (1% DMSO). The conversion of AA into products by CO and LO was initiated by adding 10 μL (50 μCi) of 1-^14 C-AA to each tube and incubated at 37° C. for 20 minutes. The reaction was stopped by adjusting the pH of each sample to 3 to 3.5 with 2M formic acid. Samples were extracted with three volumes of chloroform to isolate the products of 5-LO formed during the reaction. Fractions were dried under nitrogen, then resuspended in 40 μL of chloroform and spotted onto silica gel HL plates. The plates were developed in A-9 solvent. The dried plates were analyzed using a Bioscan Imaging TLC scanner to determine the percentage of radiolabelled AA converted to 5-HETE (LO product) in each sample. The percentage of inhibition was calculated by:
(§2) [1-(5-HETE test)]/5-HETE control×100=% inhibition
(§3) The IC50 was determined using a curve fit in Cricket Graph (Computer Associated), which provided the equation of the regressed line used in the calculation.

5-LO [3] = target: T3, 5-LO (Rattus norvegicus, UniProt P12527); test: Procedure II: 5-LO activity (5-HETE) in broken RBL-1 cells (homogenate supernatant); type: biochemical; details: RBL-1 broken cell supernatant; for inhibition at 10 µM: 20 min, @ 10 .quadrature.M, read-out: Proc. II 5-LO % inhibition
T3 construct: the supernatant was saved as the source of enzymes; endogenous in cells; host or cells: RBL-1 (rat basophilic leukemia) cells
T3 sequence (P12527 1-673): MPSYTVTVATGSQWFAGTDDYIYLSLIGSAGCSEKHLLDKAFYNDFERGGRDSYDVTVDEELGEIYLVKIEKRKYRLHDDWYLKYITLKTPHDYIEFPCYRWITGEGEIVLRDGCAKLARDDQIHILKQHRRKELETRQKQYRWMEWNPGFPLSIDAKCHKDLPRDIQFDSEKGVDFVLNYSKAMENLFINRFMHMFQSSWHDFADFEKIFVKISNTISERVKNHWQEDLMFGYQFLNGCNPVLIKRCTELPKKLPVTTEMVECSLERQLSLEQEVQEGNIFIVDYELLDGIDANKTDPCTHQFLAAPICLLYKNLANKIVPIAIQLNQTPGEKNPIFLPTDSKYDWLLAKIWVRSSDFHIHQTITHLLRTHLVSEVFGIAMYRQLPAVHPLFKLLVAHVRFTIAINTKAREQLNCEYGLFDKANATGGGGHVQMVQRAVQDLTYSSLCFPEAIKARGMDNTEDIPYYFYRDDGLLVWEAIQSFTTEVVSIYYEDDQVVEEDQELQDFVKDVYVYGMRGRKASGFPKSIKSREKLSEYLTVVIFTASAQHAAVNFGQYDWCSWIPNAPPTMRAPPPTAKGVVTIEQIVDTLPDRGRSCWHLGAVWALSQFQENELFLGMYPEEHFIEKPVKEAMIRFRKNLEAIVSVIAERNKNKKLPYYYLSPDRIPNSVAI
Protocol: as §1, §2, §3

CO [4] = target: T2, CO; test: Procedure III: CO (PgD2) in intact RBL-1 cells; type: cell-based; details: calcium ionophore A 23187, read-out: Proc. III CO IC50
Protocol: as §3
(§4) In Procedure III, the ability to inhibit 5-LO and CO in intact RBL-1 cells was also evaluated. […] Cells were collected by centrifugation, washed once in HBSS, and resuspended at a concentration of 1×10^5 cells/mL. Cells were incubated in the presence of vehicle or drug then centrifuged at 800×g for 10 minutes at 4° C. The supernatant was removed by aspiration and the cells were resuspended in 0.5 mL of HBSS. […] The conversion of AA to 5-LO products was initiated by the addition of 10 μL (50 μCi) of 1-^14 C-AA. Products were isolated by acidification and extraction, followed by thin layer chromatography analysis as described above. Radioactive areas corresponding to authentic 5-LO (5-HETE) and CO (PgD2) products were quantitated by the Bioscan 2000 Imaging System and the IC50 was calculated as above.

5-LO [5] = target: T3, 5-LO; test: Procedure III: 5-LO (5-HETE) in intact RBL-1 cells; type: cell-based; details: calcium ionophore A 23187, read-out: Proc. III 5-LO IC50
Protocol: as §3, §4

[6] = @ 10 .quadrature.M, SSV cyclooxygenase

SMILES	inhibition at 10 µM [1, 6]	inhibition at 10 µM (CO [2])	inhibition at 10 µM (5-LO [3])	IC50 (CO [4])	IC50 (5-LO [5])	IC50 ([1]; SSV cyclooxygenase)	IC50 (5-LO [3]; read-out: Proc. II 5-LO IC50)	inhibition at 10 µM [1]
COc1ccc(-n2nc(C#CC(C)N(O)C(=O)C(C)C)cc2-c2ccc(Cl)cc2)cc1 (stereo not drawn) [Cpd 37]		80%	100%					
CCCNC(=O)N(O)C(C)C#Cc1cc(-c2ccc(Cl)cc2)n(-c2ccc(OC)cc2)n1 (stereo not drawn) [Cpd 8]	14%	32%	82%		2800 nM			
COc1ccc(-n2nc(C#CC(C)N(O)C(=O)CCC(=O)O)cc2-c2ccc(Cl)cc2)cc1 (stereo not drawn) [Cpd 39]	0%	0%	74%					
CCc1ccc(-c2cc(C#CC(C)N(O)C(=O)CN3CCN(C)CC3)nn2-c2ccc(OC)cc2)cc1 (stereo not drawn) [Cpd 45, N-(4-methylpiperazin-1-yl)acetyl-N-(1-[5-(4-ethylphenyl)-1-(4-methoxyphenyl)pyrazol-3-yl]-1-butyn-3-yl)hydroxylamine]	0%	11%	25%					
CCc1ccc(-c2cc(C#CC(C)N(O)C(=O)CN3CCOCC3)nn2-c2ccc(OC)cc2)cc1 (stereo not drawn) [Cpd 44]	0%	0%	93%					
COc1ccc(-n2nc(C#CC(C)N(O)C(=O)c3ccco3)cc2-c2ccc(C)cc2)cc1 (stereo not drawn) [Cpd 25, N-(furan-2-carbonyl)-N-(1-(1-(4-methoxyphenyl)-5-(4-methylphenyl)pyrazol-3-yl)-1-butyn-3-yl)hydroxylamine]		61%	70%			1300 nM		
CCCCCCCC(=O)N(O)C(C)C#Cc1cc(-c2ccc(Cl)cc2)n(-c2ccc(OC)cc2)n1 (stereo not drawn) [Cpd 38]	31%	21%	100%					
COc1ccc(-n2nc(C#CC(C)N(O)C(=O)CNCCCN(C)C)cc2-c2ccc(C)cc2)cc1 (stereo not drawn) [Cpd 42]	0%	14%	29%					
CNC(=O)N(O)C(C)C#Cc1cc(-c2ccc(Cl)cc2)n(-c2ccc(OC)cc2)n1 (stereo not drawn) [Cpd 7]	5%	0%	79%					
COc1ccc(-n2nc(C#CCN(O)C(N)=O)cc2-c2ccc(Cl)cc2)cc1 [Cpd 5, N-hydroxy-N-(1-(5-(4-chlorophenyl)-1-(4-methoxyphenyl)pyrazol-3-yl)-1-propyn-3-yl)urea]	9%	0%			900 nM		80 nM	
COc1ccc(-n2nc(C#CCN(O)C(=O)c3ccccc3)cc2-c2ccc(C)cc2)cc1 [Cpd 15]			100%		8000 nM			52%
COc1ccc(-n2nc(C#CC(C)N(O)C(=O)N3CCCCC3)cc2-c2ccc(Cl)cc2)cc1 (stereo not drawn) [Cpd 9]			76%		8000 nM			44%

Now from value to compound, other results behind:

inhibition at 10 µM [1, 6]	inhibition at 10 µM (CO [2])	inhibition at 10 µM (5-LO [3])	IC50 (CO [4])	IC50 (5-LO [5])	IC50 ([1]; SSV cyclooxygenase)	IC50 (5-LO [3]; read-out: Proc. II 5-LO IC50)	SMILES	inhibition at 10 µM [1]
21%	72%	78%	750 nM	57400 nM			CCc1ccc(-c2cc(C#CC(C)N(O)C(=O)OC)nn2-c2ccc(OC)cc2)cc1 (stereo not drawn) [Cpd 34]	
	100%	100%	360 nM	23600 nM	1200 nM		COc1ccc(-n2nc(C#CC(C)N(O)C(=O)CCl)cc2-c2ccc(C)cc2)cc1 (stereo not drawn) [Cpd 21, N-Chloroacetyl-N-(1-(1-(4-methoxyphenyl)-5-(4-methylphenyl)pyrazol-3-yl)-1-butyn-3-yl)hydroxylamine]	
66%	50%	71%	3400 nM	8500 nM			CCOC(=O)C(=O)N(O)C(C)C#Cc1cc(-c2ccc(C)cc2)n(-c2ccc(OC)cc2)n1 (stereo not drawn) [Cpd 24]	
0%	0%	37%					CCc1ccc(-c2cc(C#CC(C)N(O)C(=O)CCC(=O)O)nn2-c2ccc(OC)cc2)cc1 (stereo not drawn) [Cpd 33]	
	100%	100%					CCC(=O)N(O)C(C)C#Cc1cc(-c2ccc(Cl)cc2)n(-c2ccc(OC)cc2)n1 (stereo not drawn) [Cpd 36]	
76%	67%	93%					CCC(=O)N(O)C(C)C#Cc1cc(-c2ccc(C)cc2)n(-c2ccc(OC)cc2)n1 (stereo not drawn) [Cpd 19]	
